Experimental data taken from ChEMBL document CHEMBL3808329, “Increase of rutin antioxidant activity by generating Maillard reaction products with lysine” (Bioorg Med Chem Lett, 2016).
Active and inactive are the calls of the source. The rule behind the calls is not given here.

Experiments:
[1] = Drug metabolism assessed as increase in total phenolics at 120 degC after 4 hrs in presence of lysine by Folin-Ciocalteu method; type: physicochemical
[2] = Antioxidant activity assessed as DPPH scavenging activity at 20 to 100 ug/ml and 120 degC after 4 hrs by spectrophotometric method; type: physicochemical
HepG2 [3] = experiment: Antioxidant activity in human HepG2 cells assessed as reduction in Cu2+ induced oxidative stress at 50 to 200 ug/ml preincubated for 30 mins at 120 degC using DCFH-DA in presence of lysine by fluorescence assay; type: functional, cell-based
[4] = Antioxidant activity assessed as DPPH scavenging activity at 20 to 100 ug/ml after 4 hrs in presence of lysine by spectrophotometric method; type: physicochemical
[5] = Metal chelating activity assessed as Cu2+ reducing activity at 120 degC after 4 hrs in presence of lysine; type: physicochemical
HepG2 [6] = experiment: Induction of Cu/Zn SOD gene expression in human HepG2 cells at 100 to 300 ug/ml at 120 degC after 4 hrs in presence of lysine by western blot analysis; type: functional, cell-based
[7] = Antioxidant activity assessed as DPPH scavenging activity at 60 to 100 ug/ml and 120 degC after 4 hrs in presence of lysine by spectrophotometric method; type: physicochemical
HepG2 [8] = experiment: Antioxidant activity in human HepG2 cells assessed as increase in Cu/Zn SOD activity at 200 ug/ml at 120 degC after 4 hrs relative to control; type: functional, cell-based
[9] = Retention time of compound by HPLC method; type: physicochemical
HepG2 [10] = experiment: Antioxidant activity in human HepG2 cells assessed as increase in Cu/Zn SOD activity at 200 ug/ml in presence of lysine at 120 degC after 4 hrs relative to control; type: functional, cell-based
HepG2 [11] = experiment: Antioxidant activity in human HepG2 cells assessed as reduction in Cu2+ induced oxidative stress at 50 to 200 ug/ml preincubated for 30 mins using DCFH-DA by fluorescence assay; type: functional, cell-based
HepG2 [12] = experiment: Antioxidant activity in human HepG2 cells assessed as reduction in Cu2+ induced oxidative stress at 50 to 200 ug/ml preincubated for 30 mins in presence of lysine using DCFH-DA by fluorescence assay; type: functional, cell-based
[13] = Antioxidant activity assessed as DPPH scavenging activity at 60 ug/ml and 120 degC after 4 hrs by spectrophotometric method; type: physicochemical

| Structure (SMILES) | Drug metabolism [1] | Activity [2] | Activity (HepG2 [3]) | Activity [4] | Activity [5] | Activity (HepG2 [6]) | Activity [7] | Activity (HepG2 [8]) | Retention_time [9] [min] | Activity (HepG2 [10]) | inhibition (HepG2 [11]) | inhibition (HepG2 [12]) | Activity [13] [%] |
| --- | --- | --- | --- | --- | --- | --- | --- | --- | --- | --- | --- | --- | --- |
| NCCCC[C@H](N[C@@H]1O[C@H](CO)[C@@H](O)[C@H](O)[C@H]1O)C(=O)O | metabolite_detected | Active | Active | Active | Active |  |  |  |  |  |  |  |  |
| C[C@@H]1O[C@@H](N[C@@H](CCCCN)C(=O)O)[C@H](O)[C@H](O)[C@H]1O | metabolite_detected | Active | Active | Active | Active |  |  |  |  |  |  |  |  |
| C[C@@H]1O[C@@H](OC[C@H]2O[C@@H](Oc3c(-c4ccc(O)c(O)c4)oc4cc(O)cc(O)c4c3=O)[C@H](O)[C@@H](O)[C@@H]2O)[C@H](O)[C@H](O)[C@H]1O [RUTIN] | metabolite_detected |  | Active | Dose-dependent effect | Active | Active | Active | Active | 8.94 | Active | inactive | inactive |  |
| NCCCC[C@H](N)C(=O)O [LYSINE] |  |  |  |  |  |  |  |  | 2.01 |  |  |  |  |
| O=C1O[C@H]([C@@H](O)CO)C(O)=C1O [ASCORBIC ACID] |  |  |  |  |  |  |  |  |  |  |  |  | 90.6 |
